We go through 2 molecules from patent EP0287988A2, “Pyrrole aldehydes, their preparation and use” (CASSELLA Aktiengesellschaft, priority 1987, dated 1988).

This experiment deals with scopolamininduzierten Amnesie. Briefly: Passive avoidance test, scopolamine-induced amnesia (light-dark box, foot shock, latency after 24 h). In kind it is in vivo, Mäuse. The note with it: male mice, scopolamine hydrobromide 3 mg/kg i.p. The protocol: Die Testapparatur ist eine Hell-Dunkel-Box mit elektrifizierbarem Gitterboden im dunklen Teil.
55 Minuten nach Verabreichung von Kontroll-und Präparatinjektion werden unerfahrene männliche Mäuse mit Scopolaminhydrobromid (3 mg/kg i.p.) behendelt. 5 Minuten später werden die Mäuse in den hellen Teil der Box gesetzt. Nach dem Überwechseln in den drunklen Teil der Box erhalten sie einen ihnen unangenehmen elektrischen Fußschock. Nach 24 Stunden wird jede Maus einmal in den hellen Teil der Testapparatur gesetzt und die Verweildauer (max. 180 sec.) gemessen. […] […] Die Ergebnisse sind in Tabelle 2 angegeben.

Turning to `NC(=O)CN1CCCC1=O` [Piracetam], where the note is “Dosis 60 mg/kg p.o.”, the “prozentuale Abschwächung” value worked out at 100%.

As to “1-(Aminocarbony(methyl)-2,5-dimethylpyrrol-3-aldehyd [Beispiel 13]”, the “Prozentuale Abschwächung der scopolamininduzierten Amnesie” value (Dosis 30 mg/kg p.o., latency measured after 24 h (max. 180 sec)) was 146%.
